Data set [1] can be described thus: Lipophilicity, log P of the compound. The format is physicochemical. The settings on record: octanol/water.
Data set [2] relates to K562. The data set is described as follows: Growth inhibition of human K562 cells at 10 uM after 24 hrs by MTT assay. It is filed as functional. The conditions noted are these: K562, 24 h, read-out: GI. A general note: Tetrazolium dyes change colour on reduction, which living cells bring about.
In data set [3] the test system is MDA-MB-231. The data set is described as follows: Growth inhibition of human MDA-MB-231 cells at 10 uM after 24 hrs by MTT assay. It is filed as functional. The settings on record: MDA-MB-231, 24 h, read-out: GI.
In data set [4] the test system is Rattus norvegicus. As to the kind of experiment: Inhibition of testosterone propionate-induced prostate hyperplasia in Wistar rat assessed as retention of normal cell morphology at 5 mg/kg, ip co-administered with testosterone propionate for 14 days by hematoxylin/eosin staining method. It is filed as functional, organism-based. Also noted: dose 5 mg/kg.
The subject of data set [5] is Rattus norvegicus. As to the kind of experiment: Inhibition of testosterone propionate-induced prostate hyperplasia in Wistar rat assessed as reduction in histoarchitecture disruption at 5 mg/kg, ip co-administered with testosterone propionate for 14 days by hematoxylin/eosin staining method. The format is functional, organism-based. Details: dose 5 mg/kg. The settings on record: Prostate gland.

The subject of data set [6] is Rattus norvegicus. As to the kind of experiment: Inhibition of testosterone propionate-induced prostate hyperplasia in Wistar rat assessed as seminal vesicle weight at 5 mg/kg, ip co-administered with testosterone propionate for 14 days (reference value: 1.6071 +/- 0.0821 g). The format is functional, Prostate gland. The settings on record: route intraperitoneal.
The test system of data set [7] is Rattus norvegicus. As to the kind of experiment: Inhibition of testosterone propionate-induced prostate hyperplasia in Wistar rat assessed as ratio of prostate weight to body weight at 5 mg/kg, ip co-administered with testosterone propionate for 14 days (reference value: 3.1634 +/- 0.1264 no unit). It is filed as functional, Prostate gland. The conditions noted are these: route intraperitoneal.

Data set [8] has as its system Rattus norvegicus. The data set is described as follows: Inhibition of testosterone propionate-induced prostate hyperplasia in Wistar rat assessed as prostate weight at 5 mg/kg, ip co-administered with testosterone propionate for 14 days (reference value: 0.838 +/- 0.0293 g). The format is functional, Prostate gland. The settings on record: route intraperitoneal.
The test system of data set [9] is LNCaP. The data set is described as follows: Growth inhibition of human LNCAP cells at 10 uM after 24 hrs by MTT assay. The format is functional. The settings on record: read-out: GI.
Data set [10] concerns Rattus norvegicus. The data set is described as follows: Inhibition of testosterone propionate-induced prostate hyperplasia in Wistar rat assessed as reduction in SIRT1 mRNA level in prostate tissue at 10 mg/kg, ip co-administered with testosterone propionate for 14 days by RT-PCR analysis. The format is functional, organism-based. Details: dose 10 mg/kg. The conditions noted are these: Prostate gland.

Data set [11] has as its system Rattus norvegicus. As to the kind of experiment: Inhibition of testosterone propionate-induced prostate hyperplasia in Wistar rat assessed as retention of normal cell morphology at 10 mg/kg, ip co-administered with testosterone propionate for 14 days by hematoxylin/eosin staining method. The format is functional, organism-based. Also noted: dose 10 mg/kg.
The test system of data set [12] is Rattus norvegicus. The data set is described as follows: Inhibition of testosterone propionate-induced prostate hyperplasia in Wistar rat assessed as reduction in histoarchitecture disruption at 10 mg/kg, ip co-administered with testosterone propionate for 14 days by hematoxylin/eosin staining method. The format is functional, organism-based. Also noted: dose 10 mg/kg. The conditions noted are these: Prostate gland.

Data set [13] relates to Rattus norvegicus. The data set is described as follows: Inhibition of testosterone propionate-induced prostate hyperplasia in Wistar rat at 10 mg/kg, ip co-administered with testosterone propionate for 14 days. It is filed as functional. The settings on record: Prostate gland, 336 h, route intraperitoneal.
The test system of data set [14] is Rattus norvegicus. The data set is described as follows: Inhibition of testosterone propionate-induced prostate hyperplasia in Wistar rat assessed as ratio of prostate weight to body weight at 10 mg/kg, ip co-administered with testosterone propionate for 14 days (reference value: 3.1634 +/- 0.1264 no unit). The format is functional, Prostate gland. The settings on record: route intraperitoneal.

Data set [15] concerns Rattus norvegicus. As to the kind of experiment: Inhibition of testosterone propionate-induced prostate hyperplasia in Wistar rat assessed as seminal vesicle weight at 10 mg/kg, ip co-administered with testosterone propionate for 14 days (reference value: 1.6071 +/- 0.0821 g). It is filed as functional, Prostate gland. The conditions noted are these: route intraperitoneal.

The test system of data set [16] is Rattus norvegicus. The data set is described as follows: Inhibition of testosterone propionate-induced prostate hyperplasia in Wistar rat assessed as prostate weight at 10 mg/kg, ip co-administered with testosterone propionate for 14 days (reference value: 0.838 +/- 0.0293 g). The settings on record: route intraperitoneal. It is filed as functional, Prostate gland.

Data set [17] has as its target T1, NAD-dependent protein deacetylase sirtuin-1 (Homo sapiens) (UniProt Q96EB6).
T1 sequence (whole entry): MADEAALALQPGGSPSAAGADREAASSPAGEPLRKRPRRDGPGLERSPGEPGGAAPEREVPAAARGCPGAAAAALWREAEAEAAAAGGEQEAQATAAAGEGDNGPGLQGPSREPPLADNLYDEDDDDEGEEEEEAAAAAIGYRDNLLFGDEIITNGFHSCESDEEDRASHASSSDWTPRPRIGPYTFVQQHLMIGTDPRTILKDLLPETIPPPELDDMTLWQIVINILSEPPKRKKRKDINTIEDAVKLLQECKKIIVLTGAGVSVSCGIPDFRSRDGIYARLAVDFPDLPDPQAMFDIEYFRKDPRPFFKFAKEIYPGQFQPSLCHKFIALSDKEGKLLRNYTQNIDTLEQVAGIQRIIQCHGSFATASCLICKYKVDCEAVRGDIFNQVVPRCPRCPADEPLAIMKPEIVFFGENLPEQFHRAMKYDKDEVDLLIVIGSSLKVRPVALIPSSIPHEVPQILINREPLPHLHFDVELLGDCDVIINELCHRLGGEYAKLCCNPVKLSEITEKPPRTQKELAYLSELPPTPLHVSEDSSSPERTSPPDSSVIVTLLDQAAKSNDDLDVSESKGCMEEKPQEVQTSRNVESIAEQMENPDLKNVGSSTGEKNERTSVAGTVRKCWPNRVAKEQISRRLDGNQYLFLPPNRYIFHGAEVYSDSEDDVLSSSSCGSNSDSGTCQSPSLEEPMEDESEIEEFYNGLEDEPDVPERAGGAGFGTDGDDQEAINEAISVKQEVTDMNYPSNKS
As to the kind of experiment: Inhibition of recombinant human SIRT1 using AMC-Arg-His-Lys-Lys(Ac) as substrate at 40 uM after 45 mins by fluorimetric assay.

Structures are written as SMILES. Activity calls are given as the source filed them. The rule behind the calls is not given here.

By logP is commonly meant the decadic logarithm of the partition coefficient of the neutral form, usually between octanol and water. Low readings indicate lower lipophilicity, high ones higher lipophilicity. The compound `CC(C)Sc1nnc(-c2c(CNCCN3CCCC3)c3cc(F)ccc3n2C)n1-c1ccccc1` showed a logP in data set [1] of 4.99.
The same measure, in the same setting: under `CC(C)Sc1nnc(-c2c(CNCCN3CCOCC3)c3ccccc3n2C)n1-c1ccccc1` stands 4.12.
Still for that read-out and setting: under `COc1cc(NCc2c(-c3nnc(SC(C)C)n3-c3ccccc3)n(C)c3ccccc23)cc(OC)c1OC` stands 5.8.
`CC1CCN(Cc2c(-c3nnc(SC(C)C)n3-c3ccccc3)n(C)c3ccccc23)CC1` gave a logP in [1] of 5.96. Also, the inhibition of growth at 10 µM in [2] worked out at 88%.
In [1], `CC(C)Sc1nnc(-c2c(CN3CCCCC3C)c3ccccc3n2C)n1-c1ccccc1` (stereo not given) displayed a logP of 5.95.
As to `CC(C)Sc1nnc(-c2c(CNCC3CC3)c3ccccc3n2C)n1-c1ccccc1`, the logP in data set [1] worked out at 5.24. In data set [2], the inhibition of growth at 10 µM was above 50%.
The compound `CC1CCCN(Cc2c(-c3nnc(SC(C)C)n3-c3ccccc3)n(C)c3ccc(F)cc23)C1` (stereo not given) displayed a lipophilicity (logP) in data set [1] of 6.18. For the same compound, in data set [3], the inhibition of growth at 10 µM is above 50%.
The inhibition is the percentage by which the read-out fell short of the control. Take `CC(C)(C)NC(=O)[C@H]1CC[C@H]2[C@@H]3CC[C@H]4NC(=O)C=C[C@]4(C)[C@H]3CC[C@]12C` [FINASTERIDE]: the inhibition entry in data set [4] and in data set [5] was “Active” in each case. Also, the Activity came out at 0.9051 g in [6] and 0.556 g in data set [8]. The Ratio in [7] was found to be 0.002471.
As for `COc1cccc(CNCc2c(-c3nnc(SC(C)C)n3-c3ccccc3)n(C)c3ccc(F)cc23)c1`, the logP in data set [1] was 6.42. Further, in data set [3], the inhibition of growth at 10 µM was above 50%.
The compound `CC(C)Sc1nnc(-c2c(CN3CCC(N4CCCC4)CC3)c3ccccc3n2C)n1-c1ccccc1` registered a logP in [1] of 5.16.
On to `CC1CCCN(Cc2c(-c3nnc(SC(C)C)n3-c3ccccc3)n(C)c3ccccc23)C1` (stereo not given), for which, in [1], the logP was found to be 6.03. The inhibition of growth at 10 µM in data set [3] was above 50%.
As to `CC(C)Sc1nnc(-c2c(CNC3CC3)c3ccccc3n2C)n1-c1ccccc1`, the logP in data set [1] was found to be 4.81.
For `CC1CCN(Cc2c(-c3nnc(SC(C)C)n3-c3ccccc3)n(C)c3ccc(F)cc23)CC1`, the logP in data set [1] came to 6.12. Also, the inhibition of growth at 10 µM in data set [9] and in data set [3] was above 50% in each case.
For `CC(C)Sc1nnc(-c2c(CNCCN3CCCC3)c3ccccc3n2C)n1-c1ccccc1`, the log partition coefficient (logP) in [1] amounted to 4.83.
Still for that read-out and setting: under `CC(C)Sc1nnc(-c2c(CNCCCN3CCOCC3)c3cc(F)ccc3n2C)n1-c1ccccc1` stands 4.38.
As for `COc1cccc(CNCc2c(-c3nnc(SC(C)C)n3-c3ccccc3)n(C)c3ccccc23)c1`, in data set [1], the logP was 6.27. The inhibition of growth at 10 µM in data set [3] is above 50%.
`COCCNCc1c(-c2nnc(SC(C)C)n2-c2ccccc2)n(C)c2ccc(F)cc12` showed a logP in data set [1] of 4.52. In addition, the inhibition of growth at 10 µM in data set [9] is above 50%.
As for `COc1ccc(CNCc2c(-c3nnc(SC(C)C)n3-c3ccccc3)n(C)c3ccccc23)cc1`, in data set [1], the logP amounted to 6.27. Besides, the inhibition of growth at 10 µM in data set [3] is above 50%.
`CC(C)Sc1nnc(-c2c(CNc3nc4ccccc4[nH]3)c3ccccc3n2C)n1-c1ccccc1` registered a logP in data set [1] of 5.94.
On the same count and under the same terms, under `CC(C)Sc1nnc(-c2c(CNCCCN3CCOCC3)c3ccccc3n2C)n1-c1ccccc1` stands 4.22; under `CC(C)Sc1nnc(-c2c(CNc3cnccn3)c3ccccc3n2C)n1-c1ccccc1`, 4.22.
On the same count and under the same terms, under `CC1CN(Cc2c(-c3nnc(SC(C)C)n3-c3ccccc3)n(C)c3ccccc23)CC(C)O1` (stereo not given) stands 5.13.
`CC(C)Sc1nnc(-c2c(CNC3CC3)c3cc(F)ccc3n2C)n1-c1ccccc1` came in with a lipophilicity (logP) in data set [1] of 4.97. In addition, the inhibition of growth at 10 µM in data set [3] and in data set [2] was above 50% in each case.
For `COc1cc(NCc2c(-c3nnc(SC(C)C)n3-c3ccccc3)n(C)c3ccc(F)cc23)cc(OC)c1OC`, in data set [1], the logP was found to be 5.96. Besides, the inhibition of growth at 10 µM in data set [2] was above 50%.
In turn, `CC(C)Sc1nnc(-c2c(CNCCN3CCOCC3)c3cc(F)ccc3n2C)n1-c1ccccc1` yielded a logP in data set [1] of 4.28.
For orientation: inhibition in vivo means how much of the control response was suppressed. As to `COc1ccc(CNCc2c(-c3nnc(SC(C)C)n3-c3ccccc3)n(C)c3ccc(F)cc23)cc1`, the logP in data set [1] stood at 6.42. Also, the inhibition result in data set [10], in data set [11] and in data set [12] was “Active” in each case. Further, the inhibition in vivo at 10 mg/kg in [13] came to 70.5%. In [14], the Ratio was 0.002298. The Activity in data set [15] is 0.619 g; in data set [16], 0.537 g. In [17], the inhibition was 70%. Also, the inhibition of growth at 10 µM in data set [9] and in data set [3] was above 50% throughout.
As for `CC(C)Sc1nnc(-c2c(CNCC3CC3)c3cc(F)ccc3n2C)n1-c1ccccc1`, in data set [1], the logP was found to be 5.4. Moreover, the inhibition of growth at 10 µM in data set [3] and in [2] was above 50% throughout.
The compound `CC(C)Sc1nnc(-c2c(CN3CCOCC3)c3cc(F)ccc3n2C)n1-c1ccccc1` registered a logP in data set [1] of 4.65. Besides, the inhibition of growth at 10 µM in [2] was determined as 88%.
Regarding `CC(C)Sc1nnc(-c2c(CN3CCOCC3)c3ccccc3n2C)n1-c1ccccc1`, in data set [1], the logP was determined as 4.5.
The same measure, in the same setting: the same measure for `COCCNCc1c(-c2nnc(SC(C)C)n2-c2ccccc2)n(C)c2ccccc12`: 4.36.
